Assay results from ChEMBL document CHEMBL1909294, “Translating clinical findings into knowledge in drug safety evaluation--drug induced liver injury prediction system (DILIps)” (PLoS Comput Biol, 2011).

How the values were obtained:
Hepatotoxicity [1] = system: Hepatotoxicity;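 for HepSE Combined Scores: combined hepatic side effect score as listed in the training data of the Drug Induced Liver Injury Prediction System (DILIps)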;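 for HepSE cholelithiasis: hepatic side effect score for cholelithiasis, drawn from the DILIps training data for predicting drug-induced liver injury; call rule not given here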;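 for HepSE cirrhosis: cirrhosis hepatic side effect score taken from the DILIps (drug-induced liver injury prediction) training set; call rule not given here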; for HepSE hepatic failure: call rule not given here;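 for HepSE hepatitis: Hepatitis-related hepatic side effect score taken from the training data of DILIps, a prediction system for drug-induced liver injury; call rule not given here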;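 for HepSE jaundice: Jaundice-related hepatic side-effect score drawn from the training data of the DILIps (drug-induced liver injury prediction system); call rule not given here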; for HepSE liver disease: call rule not given here
Hepatotoxicity [2] = system: Hepatotoxicity; remark: listed apart in the source;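 for HepSE Combined Scores: combined hepatic side effect score as listed in the training data of the Drug Induced Liver Injury Prediction System (DILIps)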;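 for HepSE cholelithiasis: hepatic side effect score for cholelithiasis, drawn from the DILIps training data for predicting drug-induced liver injury; call rule not given here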;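 for HepSE cirrhosis: cirrhosis hepatic side effect score taken from the DILIps (drug-induced liver injury prediction) training set; call rule not given here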; for HepSE hepatic failure: call rule not given here;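 for HepSE hepatitis: Hepatitis-related hepatic side effect score taken from the training data of DILIps, a prediction system for drug-induced liver injury; call rule not given here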;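 for HepSE jaundice: Jaundice-related hepatic side-effect score drawn from the training data of the DILIps (drug-induced liver injury prediction system); call rule not given here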; for HepSE liver disease: call rule not given here
Hepatotoxicity [3] = system: Hepatotoxicity; remark: listed apart in the source;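 for HepSE Combined Scores: combined hepatic side effect score as listed in the training data of the Drug Induced Liver Injury Prediction System (DILIps)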;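 for HepSE cholelithiasis: hepatic side effect score for cholelithiasis, drawn from the DILIps training data for predicting drug-induced liver injury; call rule not given here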;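 for HepSE cirrhosis: cirrhosis hepatic side effect score taken from the DILIps (drug-induced liver injury prediction) training set; call rule not given here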; for HepSE hepatic failure: call rule not given here;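 for HepSE hepatitis: Hepatitis-related hepatic side effect score taken from the training data of DILIps, a prediction system for drug-induced liver injury; call rule not given here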;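 for HepSE jaundice: Jaundice-related hepatic side-effect score drawn from the training data of the DILIps (drug-induced liver injury prediction system); call rule not given here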; for HepSE liver disease: call rule not given here
Hepatotoxicity [4] = system: Hepatotoxicity; remark: listed apart in the source;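 for HepSE Combined Scores: combined hepatic side effect score as listed in the training data of the Drug Induced Liver Injury Prediction System (DILIps)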;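 for HepSE cholelithiasis: hepatic side effect score for cholelithiasis, drawn from the DILIps training data for predicting drug-induced liver injury; call rule not given here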;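 for HepSE cirrhosis: cirrhosis hepatic side effect score taken from the DILIps (drug-induced liver injury prediction) training set; call rule not given here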; for HepSE hepatic failure: call rule not given here;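 for HepSE hepatitis: Hepatitis-related hepatic side effect score taken from the training data of DILIps, a prediction system for drug-induced liver injury; call rule not given here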;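 for HepSE jaundice: Jaundice-related hepatic side-effect score drawn from the training data of the DILIps (drug-induced liver injury prediction system); call rule not given here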; for HepSE liver disease: call rule not given here
Hepatotoxicity [5] = system: Hepatotoxicity; remark: listed apart in the source; for HepSE hepatic failure: call rule not given here; for HepSE liver disease: call rule not given here
Hepatotoxicity [6] = system: Hepatotoxicity; remark: listed apart in the source; for HepSE hepatic failure: call rule not given here; for HepSE liver disease: call rule not given here
Hepatotoxicity [7] = system: Hepatotoxicity; remark: listed apart in the source
Hepatotoxicity [8] = system: Hepatotoxicity; remark: listed apart in the source
Hepatotoxicity [9] = system: Hepatotoxicity; remark: listed apart in the source
Hepatotoxicity [10] = system: Hepatotoxicity; remark: listed apart in the source
Hepatotoxicity [11] = system: Hepatotoxicity; remark: listed apart in the source
Hepatotoxicity [12] = system: Hepatotoxicity; remark: listed apart in the source
Hepatotoxicity [13] = system: Hepatotoxicity; remark: listed apart in the source
Hepatotoxicity [14] = system: Hepatotoxicity; remark: listed apart in the source

SMILES	HepSE_hepatitis (Hepatotoxicity [1])	HepSE_hepatic failure (Hepatotoxicity [2])	HepSE_liver disease (Hepatotoxicity [3])	HepSE_hepatic necrosis (Hepatotoxicity [4])	HepSE_jaundice (Hepatotoxicity [5])	HepSE_cholelithiasis (Hepatotoxicity [6])	HepSE_cirrhosis (Hepatotoxicity [7])	HepSE_liver fatty (Hepatotoxicity [8])	HepSE_Combined Scores (Hepatotoxicity [9])	HepSE_liver function tests abnormal (Hepatotoxicity [10])	HepSE_hepatomegaly (Hepatotoxicity [11])	HepSE_bilirubinemia (Hepatotoxicity [12])	HepSE_elevated liver function tests (Hepatotoxicity [13])	HepSE_cholecystitis (Hepatotoxicity [14])	further results
CC(C)OC(=O)C(C)(C)Oc1ccc(C(=O)c2ccc(Cl)cc2)cc1 [FENOFIBRATE]	1	0	0	0	1	1	1	1	7	1	0	0	0	1	
Oc1ccc(C2CNCCc3c2cc(O)c(O)c3Cl)cc1 (configuration not stated) [FENOLDOPAM]	0	0	0	0	0	0	0	0	0	0	0	0	0	0	
CC(C(=O)O)c1cccc(Oc2ccccc2)c1 (configuration not stated) [FENOPROFEN]	1	0	0	0	1	0	0	0	2	0	0	0	0	0	
CC(C)(C)NC(=O)[C@H]1CC[C@H]2[C@@H]3CC[C@H]4NC(=O)C=C[C@]4(C)[C@H]3CC[C@]12C [FINASTERIDE]	0	0	0	0	0	0	0	0	0	0	0	0	0	0	
Cc1c(-c2ccccc2)oc2c(C(=O)OCCN3CCCCC3)cccc2c1=O [FLAVOXATE]	0	0	0	0	0	0	0	0	0	0	0	0	0	0	
O=C(NCC1CCCCN1)c1cc(OCC(F)(F)F)ccc1OCC(F)(F)F (configuration not stated) [FLECAINIDE]	0	1	0	0	1	0	0	0	2	0	0	0	0	0	
OC(Cn1cncn1)(Cn1cncn1)c1ccc(F)cc1F [FLUCONAZOLE]															HepSE_hepatitis (Hepatotoxicity [1]; Liver): 1; HepSE_hepatic failure (Hepatotoxicity [2]; Liver): 1; HepSE_liver disease (Hepatotoxicity [3]; Liver): 0; HepSE_hepatic necrosis (Hepatotoxicity [4]; Liver): 1; HepSE_jaundice (Hepatotoxicity [5]; Liver): 1; HepSE_cholelithiasis (Hepatotoxicity [6]; Liver): 0; HepSE_cirrhosis (Hepatotoxicity [7]; Liver): 0; HepSE_liver fatty (Hepatotoxicity [8]; Liver): 0; HepSE_Combined Scores (Hepatotoxicity [9]; Liver): 4; HepSE_liver function tests abnormal (Hepatotoxicity [10]; Liver): 0; HepSE_hepatomegaly (Hepatotoxicity [11]; Liver): 0; HepSE_bilirubinemia (Hepatotoxicity [12]; Liver): 0; HepSE_elevated liver function tests (Hepatotoxicity [13]; Liver): 0; HepSE_cholecystitis (Hepatotoxicity [14]; Liver): 0
Nc1nc(=O)[nH]cc1F [FLUCYTOSINE]	0	0	0	0	1	0	0	0	1	0	0	0	0	0	
Nc1nc(F)nc2c1ncn2[C@@H]1O[C@H](CO)[C@@H](O)[C@@H]1O [FLUDARABINE]	0	1	0	0	0	1	0	0	2	0	0	0	0	0	
C[C@]12CCC(=O)C=C1CC[C@H]1[C@@H]3CC[C@](O)(C(=O)CO)[C@@]3(C)C[C@H](O)[C@@]12F [FLUDROCORTISONE]	0	0	0	0	0	0	0	0	0	0	0	0	0	0	
CCOC(=O)c1ncn2c1CN(C)C(=O)c1cc(F)ccc1-2 [FLUMAZENIL]	0	0	0	0	0	0	0	0	0	0	0	0	0	0	
C[C@@H]1C[C@H]2[C@@H]3C[C@H](F)C4=CC(=O)C=C[C@]4(C)[C@@]3(F)[C@@H](O)C[C@]2(C)[C@@]1(O)C(=O)CO [FLUMETHASONE]	0	0	0	0	0	0	0	0	0	0	0	0	0	0	
CC1(C)O[C@@H]2C[C@H]3[C@@H]4C[C@H](F)C5=CC(=O)C=C[C@]5(C)[C@H]4[C@@H](O)C[C@]3(C)[C@]2(C(=O)CO)O1 [FLUNISOLIDE]	0	0	0	0	0	0	0	0	0	0	0	0	0	0	
